Data: patent US11944600B2, “Use of cannabinoids in the treatment of a neurodegenerative disease or disorder” (priority 2017, dated 2024)

Assays:
ALS patients = settings: in some patients; cited from earlier work
[1] = system: experimental model of ALS; settings: prior art statement; cited from earlier work
TDP-43 transgenic mice [2] = test: Rotarod test in TDP-43 transgenic mice; format: in vivo, mouse; settings: 10 mg/kg/day i.p.; for motor performance on rotarod compared to wild type: vs wild type
Protocol: (§1) A transgenic mouse model of ALS, TDP-43, was used to determine the effects of the cannabinoids in treatment of symptoms of ALS.
(§2) The TDP-43 transgenic and wild-type mice were subjected to genotyping to identify the presence of mutant TDP-43 gene. These mice were used for a chronic i.p. treatment (from 60 days of age up to the age of 90 days) with cannabinoid or vehicle.
(§3) All studies were conducted in male mice (n=6-8 subjects in each experimental group).
(§4) The neuroprotective effects of 2 different phytocannabinoids (CBDV and CBDA) were investigated. The cannabinoids were administered at a dose of 10 mg/kg/day.
(§5) Animals were recorded for neurological decline by testing rotarod performance and observing limb clasping during the whole treatment period. The weight of the animals was also recorded during the treatment period.
(§6) Data were assessed using one-way (immunostaining data) or two-way (rotarod data) ANOVA followed by an appropriate post-hoc test (Student Newman-Keuls for immunostaining data, and Bonferroni for behavioural data) significance was reported at p≤0.05. Data shown in the figures represent “p<0.01, ***p<0.001.
The rotarod test was utilised to quantify the muscle weakness characteristic of TDP-43 transgenic mice.

TDP-43 transgenic mice [3] = test: Nissl-stained spinal motor neurons in TDP-43 transgenic mouse model of ALS; format: in vivo; settings: TDP-43 transgenic male mice, 10 mg/kg/day i.p. from 60 to 90 days of age, vs vehicle (p<0.05), FIG. 1
Protocol: as §1, §2, §3, §4
(§7) Animals were euthanized at the end of the treatment period and their spinal cords collected for biochemical and histopathological analyses.
as §6

TDP-43 transgenic mice [4] = test: Weight gain in TDP-43 transgenic mice; format: in vivo, mouse; settings: TDP-43 transgenic male mice, 10 mg/kg/day i.p., FIG. 6A/6B
Protocol: as §1, §2, §3, §4, §5
The weight gain of animals was also monitored, this is a variable which is frequently used to monitor disease progression in animal models of ALS.

TDP-43 transgenic mice [5] = test: GFAP immunostaining of spinal cord astrocytes in TDP-43 transgenic mice; format: in vivo, mouse; settings: TDP-43 transgenic male mice, 10 mg/kg/day i.p. from 60 to 90 days of age, FIG. 2
Protocol: as §1, §2, §3, §4, §7, §6
The reduction of spinal motor neurons in TDP-43 transgenic mice was associated with an elevation in the number of astrocytes labelled with Glial fibrillary acidic protein (GFAP) immunostaining, in particular activated astrocytes identified by analysis of their morphological characteristics (e.g. increased cell shape and size, reduction in the length of processes).

TDP-43 transgenic mice [6] = test: lba-1 immunostaining of spinal cord microglial cells in TDP-43 transgenic mice; format: in vivo, mouse; settings: TDP-43 transgenic male mice, 10 mg/kg/day i.p. from 60 to 90 days of age, FIG. 3
Protocol: as §1, §2, §3, §4, §7
Data were assessed using one-way (immunostaining data) or two-way (rotarod data) ANOVA followed by an appropriate post-hoc test (Student Newman-Keuls for immunostaining data, and Bonferroni for behavioural data) significance was reported at p≤0.05. […]
The number of microglial cells in the spinal cord was quantified using lba-1 immunostaining, and again differentiating resting and activated cells through the analysis of their morphological characteristics (e.g. cell shape and size, type of processes). […] This was also seen when the ratio between cell body area and cell process length was calculated.

patients with ALS = settings: 27 patients with ALS, 5 mg of THC twice daily; cited from earlier work
[7] = system: mSOD1-transgenic (G93A) mice; test: Rotarod performance in SOD-1 transgenic mice; format: in vivo, mouse; settings: SOD-1 transgenic male mice, treated from 10 to 21 weeks of age; BDS 10 mg/kg i.p., olesoxime 3 mg/kg s.c., FIG. 7
Protocol: (§8) A transgenic mouse model of ALS, SOD1, was used to determine the effects of the combined treatment of a drug used in the treatment of ALS, olesoxime, with THC.
(§9) mSOD1-transgenic (G93A) and wild-type mice were subjected to genotyping to identify the presence of mutant SOD-1. These mice were used for chronic treatment (from 10 weeks of age up to the age of 21 weeks) with test article or vehicle.
as §3
(§10) The treatment groups were as follows: THC-BDS (10 mg/kg; i.p.); CBD-BDS (10 mg/kg; i.p); olesoxime (3 mg/kg; s.c.); a combination of THC-BDS and olesoxime; and vehicle. A group of wild-type animals were also treated with vehicle.
(§11) Animals were recorded for neurological decline by testing rotarod performance during the whole treatment period. Animals were recorded for neurological decline (using a previously published ALS-related neurological scale; de Munck et al., 2013).
(§12) Data were assessed using one-way (immunostaining data) or two-way (rotarod data) ANOVA followed by an appropriate post-hoc test (Student Newman-Keuls for immunostaining data, and Bonferroni for behavioural data) significance was reported at p≤0.05. Data shown in the figures represent “p<0.01, ***p<0.001

[8] = system: mSOD1-transgenic (G93A) mice; test: Nissl-stained motor neurons in ventral horn of spinal cord in SOD-1 transgenic mice; format: in vivo, mouse; settings: SOD-1 mutant male mice vs vehicle-treated mutant mice; BDS 10 mg/kg i.p., olesoxime 3 mg/kg s.c., 10 to 21 weeks of age, FIG. 9
Protocol: as §8, §9, §3, §10, §7, §12
The number of motor neurons in the ventral horn of the spinal cord was quantified using Nissl staining.

[9] = system: mSOD1-transgenic (G93A) mice; test: Neurological score in SOD-1 transgenic mice; format: in vivo, mouse; settings: SOD-1 mutant male mice, treated from 10 to 21 weeks of age; BDS 10 mg/kg i.p., olesoxime 3 mg/kg s.c., FIG. 8
Protocol: as §8, §9, §3, §10, §11, §12

TDP-43 transgenic mice [10] = test: Limb clasping in TDP-43 transgenic mice; format: in vivo, mouse; settings: TDP-43 transgenic male mice, 10 mg/kg/day i.p., FIG. 5
Protocol: as §1, §2, §3, §4, §5, §6

Structure (SMILES): Nc1nc2ccc(OC(F)(F)F)cc2s1 [riluzole]
- onset of ventilator-dependence or tracheostomy (ALS patients): delays

Structure (SMILES): CCCCCc1cc(O)c2c(c1)OC(C)(C)c1ccc(C)cc1-2 [CBN, cannabinol, reference compound]
- neuroprotection in an experimental model of ALS [1]: neuroprotective

Structure (SMILES): CCCCCc1cc(O)c2c(c1)OC(C)(C)[C@@H]1CCC(C)=C[C@@H]21 [THC, Tetrahydrocannabinol]
- neuroprotection in an experimental model of ALS [1]: neuroprotective

Structure (SMILES): C=C(C)[C@@H]1CCC(C)=C[C@H]1c1c(O)cc(CCC)cc1O [CBDV, Cannabidivarin]
- motor performance on rotarod compared to wild type (TDP-43 transgenic mice [2]; TDP-43 mice at 12 weeks of age): significantly impaired
- loss of Nissl-stained motor neurons in the spinal cord (TDP-43 transgenic mice [3]): almost completely recovered
- marked weight loss (weight gain monitoring) (TDP-43 transgenic mice [4]): reduce
- ratio between cell body area and process length (GFAP-labelled astrocytes) (TDP-43 transgenic mice [5]): reduced
- total immunoreactivity for GFAP (TDP-43 transgenic mice [5]): reduced
- lba-1 immunostaining changes (cell bodies, cell processes, ratio), all parameters (TDP-43 transgenic mice [6]): reversed the changes

Structure (SMILES): CCCCCc1cc(O)c2c(c1)OC(C)(C)[C@@H]1CCC(C)=C[C@@H]21 [dronabinol]
- effect on the cramps associated with ALS (patients with ALS): failed to have a significant effect

Structure (SMILES): CC(C)CCC[C@@H](C)[C@H]1CC[C@H]2[C@@H]3CCC4=CC(=NO)CC[C@]4(C)[C@H]3CC[C@]12C [olesoxime]
- rotarod performance (time spent on the rod) [7]: able to attenuate the effect
- number of Nissl-stained motor neurons in the ventral horn of the spinal cord [8]: statistically significant
- elevated Neurological Score (neurological decline) [9]: non-significant trends towards a reduced score

Structure (SMILES): C=C(C)[C@@H]1CCC(C)=C[C@H]1c1c(O)cc(CCCCC)c(C(=O)O)c1O [CBDA, Cannabidiolic acid]
- performance on the rotarod compared to vehicle (TDP-43 transgenic mice [2]; TDP-43 mice at 12 weeks of age, vs vehicle): significantly superior performance
- motor performance on rotarod compared to wild type (TDP-43 transgenic mice [2]; TDP-43 mice at 12 weeks of age): significantly impaired
- rotarod performance (latency to fall) during disease progression (TDP-43 transgenic mice [2]; TDP-43 transgenic male mice, even at advanced stages of the disease, FIG. 4): attenuated the rotarod worsening
- loss of Nissl-stained motor neurons in the spinal cord (TDP-43 transgenic mice [3]): almost completely recovered
- increase in limb clasping (TDP-43 transgenic mice [10]): strongly and significantly attenuated
- marked weight loss (weight gain monitoring) (TDP-43 transgenic mice [4]): prevent
- ratio between cell body area and process length (GFAP-labelled astrocytes) (TDP-43 transgenic mice [5]): reduced
- total immunoreactivity for GFAP (TDP-43 transgenic mice [5]): reduced
- lba-1 immunostaining changes (cell bodies, cell processes, ratio), all parameters (TDP-43 transgenic mice [6]): reversed the changes
